Laboratory results from ChEMBL document CHEMBL4007500, “Cyclic mu-opioid receptor ligands containing multiple N-methylated amino acid residues” (Bioorg Med Chem Lett, 2017).
Activity calls are given as the source filed them. The calls are words filed in the database; no cut-off is given here.

Key:
[1] = molecular target: Delta-type opioid receptor (Rattus norvegicus, UniProt P33533); assay: Displacement of [3H][Ile5,6]deltorphin-2 from DOR in Wistar rat brain homogenates after 180 mins by liquid scintillation counting analysis
[2] = molecular target: Delta-type opioid receptor (Homo sapiens) (UniProt P41143); assay: Agonist activity at human recombinant DOR expressed in CHO cells assessed as calcium mobilization up to 1 uM by Fluo-4 AM based fluorescence analysis; assay type: functional, cell-based
[3] = molecular target: Kappa-type opioid receptor (Cavia porcellus, UniProt P41144); assay: Displacement of [3H]nor-BNI from KOR in Dunkin Hartley guinea pig brain homogenates after 180 mins by liquid scintillation counting analysis
[4] = molecular target: T1, Mu-type opioid receptor (Homo sapiens, UniProt P35372); assay: Agonist activity at human recombinant MOR expressed in CHO cells assessed as calcium mobilization by Fluo-4 AM based fluorescence analysis relative to EM2; assay type: functional, cell-based
[5] = molecular target: T1, Mu-type opioid receptor; assay: Agonist activity at human recombinant MOR expressed in CHO cells assessed as calcium mobilization by Fluo-4 AM based fluorescence analysis; assay type: functional, cell-based
[6] = Stability of compound in Wistar rat brain homogenate assessed as compound remaining at 0.5 mM after 90 mins by RP-HPLC analysis; assay type: ADME, tissue-based; conditions: read-out: Stability
[7] = molecular target: Kappa-type opioid receptor (Homo sapiens) (UniProt P41145); assay: Agonist activity at human recombinant KOR expressed in CHO cells assessed as calcium mobilization up to 1 uM by Fluo-4 AM based fluorescence analysis; assay type: functional, cell-based
[8] = molecular target: Mu-type opioid receptor (Rattus norvegicus, UniProt P33535); assay: Displacement of [3H]DAMGO from MOR in Wistar rat brain homogenates after 180 mins by liquid scintillation counting analysis
Mu-type opioid receptor (Rattus norvegicus, UniProt P33535), sequence (P33535 whole entry): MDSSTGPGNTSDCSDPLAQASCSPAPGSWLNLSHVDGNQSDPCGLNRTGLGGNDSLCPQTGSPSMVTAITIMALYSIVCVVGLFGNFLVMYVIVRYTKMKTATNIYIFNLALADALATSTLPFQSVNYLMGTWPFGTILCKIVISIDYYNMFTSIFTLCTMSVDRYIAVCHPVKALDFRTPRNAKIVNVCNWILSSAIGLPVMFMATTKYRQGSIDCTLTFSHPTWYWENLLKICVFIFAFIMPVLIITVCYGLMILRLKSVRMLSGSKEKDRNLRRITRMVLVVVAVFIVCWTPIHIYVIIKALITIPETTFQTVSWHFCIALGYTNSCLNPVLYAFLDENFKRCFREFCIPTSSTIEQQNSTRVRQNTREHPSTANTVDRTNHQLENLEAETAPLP

T1 sequence (P35372 whole entry): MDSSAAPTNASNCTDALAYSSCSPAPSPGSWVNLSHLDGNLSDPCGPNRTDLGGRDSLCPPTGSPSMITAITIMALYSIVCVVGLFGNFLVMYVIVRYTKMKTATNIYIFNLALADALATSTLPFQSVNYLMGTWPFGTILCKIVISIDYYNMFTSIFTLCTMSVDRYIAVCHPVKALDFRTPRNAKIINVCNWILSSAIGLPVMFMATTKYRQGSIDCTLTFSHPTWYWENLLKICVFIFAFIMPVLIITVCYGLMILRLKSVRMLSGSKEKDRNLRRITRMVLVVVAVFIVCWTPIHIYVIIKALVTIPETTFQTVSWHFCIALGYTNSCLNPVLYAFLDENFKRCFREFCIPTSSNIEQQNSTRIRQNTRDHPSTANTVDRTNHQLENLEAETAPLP
Kappa-type opioid receptor, sequence (P41144 whole entry): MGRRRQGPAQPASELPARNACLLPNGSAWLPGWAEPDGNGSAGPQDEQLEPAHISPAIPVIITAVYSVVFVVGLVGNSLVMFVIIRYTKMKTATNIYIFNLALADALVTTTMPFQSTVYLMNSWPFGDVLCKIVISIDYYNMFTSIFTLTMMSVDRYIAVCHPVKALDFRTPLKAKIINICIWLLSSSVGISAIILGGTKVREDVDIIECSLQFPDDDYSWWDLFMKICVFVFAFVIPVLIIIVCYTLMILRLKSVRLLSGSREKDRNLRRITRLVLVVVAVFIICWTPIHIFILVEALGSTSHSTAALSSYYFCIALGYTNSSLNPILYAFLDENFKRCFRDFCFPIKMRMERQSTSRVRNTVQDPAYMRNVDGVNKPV
Delta-type opioid receptor, sequence (P33533 whole entry): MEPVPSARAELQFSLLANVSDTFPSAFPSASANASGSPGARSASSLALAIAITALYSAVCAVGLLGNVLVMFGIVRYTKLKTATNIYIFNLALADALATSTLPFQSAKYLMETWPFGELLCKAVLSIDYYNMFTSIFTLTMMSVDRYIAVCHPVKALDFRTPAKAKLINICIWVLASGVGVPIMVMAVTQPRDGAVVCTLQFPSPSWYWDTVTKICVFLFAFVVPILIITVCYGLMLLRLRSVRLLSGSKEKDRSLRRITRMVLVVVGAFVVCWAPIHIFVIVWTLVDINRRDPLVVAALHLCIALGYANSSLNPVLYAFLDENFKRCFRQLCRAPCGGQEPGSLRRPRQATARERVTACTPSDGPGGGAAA
Kappa-type opioid receptor (Homo sapiens), sequence (P41145 whole entry): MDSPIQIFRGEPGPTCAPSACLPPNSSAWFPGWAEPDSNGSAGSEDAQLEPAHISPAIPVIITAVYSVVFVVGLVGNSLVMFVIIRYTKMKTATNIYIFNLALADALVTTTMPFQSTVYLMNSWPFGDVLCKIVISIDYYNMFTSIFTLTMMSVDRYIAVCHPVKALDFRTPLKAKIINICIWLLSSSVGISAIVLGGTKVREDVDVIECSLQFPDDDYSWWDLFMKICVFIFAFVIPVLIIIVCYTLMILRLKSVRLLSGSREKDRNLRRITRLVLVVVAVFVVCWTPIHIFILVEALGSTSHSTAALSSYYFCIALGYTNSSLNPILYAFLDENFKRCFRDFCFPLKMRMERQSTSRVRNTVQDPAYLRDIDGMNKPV
Delta-type opioid receptor (Homo sapiens), sequence (P41143 whole entry): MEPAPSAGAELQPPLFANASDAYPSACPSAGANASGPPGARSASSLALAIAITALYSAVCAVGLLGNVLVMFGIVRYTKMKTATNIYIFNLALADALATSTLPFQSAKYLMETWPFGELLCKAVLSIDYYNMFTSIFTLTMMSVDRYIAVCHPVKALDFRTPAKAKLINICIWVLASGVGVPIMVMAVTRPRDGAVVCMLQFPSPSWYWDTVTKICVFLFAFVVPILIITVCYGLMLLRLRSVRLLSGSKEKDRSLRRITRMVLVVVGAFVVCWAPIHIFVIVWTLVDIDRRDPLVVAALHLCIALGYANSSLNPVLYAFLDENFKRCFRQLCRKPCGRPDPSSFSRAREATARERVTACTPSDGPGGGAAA

| Compound | Ki ([1]; read-out: Ki) | Activity [2] | Ki ([3]; read-out: Ki) | Intrinsic activity [4] | EC50 [5] | remaining at 1.5 h, 500 µM [6] | Activity [7] | Ki ([8]; read-out: Ki) | pEC50 [5] | Ki [1] | Ki [3] | Ki [8] |
| --- | --- | --- | --- | --- | --- | --- | --- | --- | --- | --- | --- | --- |
| CN[C@@H](Cc1ccc(O)cc1)C(=O)N[C@@H]1CCCCNC(=O)C[C@@H](C(N)=O)NC(=O)[C@H](Cc2ccccc2)N(C)C(=O)[C@H](Cc2ccccc2)NC1=O | > 1000 nM | inactive | > 1000 nM | 0.93 | 10.2 nM | 97.2% | inactive | 0.73 nM | – | – | – | – |
| CN[C@H](Cc1ccc(O)cc1)C(=O)N[C@H]1CCCCNC(=O)C[C@@H](C(N)=O)NC(=O)[C@H](Cc2ccccc2)N(C)C(=O)CNC(=O)[C@H](Cc2ccccc2)N(C)C1=O | – | inactive | – | – | – | – | inactive | – | inactive | – | – | – |
| CN[C@@H](Cc1ccc(O)cc1)C(=O)N[C@@H]1CCCCNC(=O)C[C@@H](C(N)=O)NC(=O)CNC(=O)[C@H](Cc2ccccc2)N(C)C(=O)[C@H](Cc2ccccc2)N(C)C(=O)CNC1=O | > 1000 nM | inactive | > 1000 nM | – | – | 97.4% | inactive | 106 nM | inactive | – | – | – |
| CN[C@@H](Cc1ccc(O)cc1)C(=O)N[C@@H]1CCCCNC(=O)C[C@@H](C(N)=O)NC(=O)[C@H](Cc2ccccc2)N(C)C(=O)CNC(=O)[C@H](Cc2ccccc2)N(C)C1=O | > 1000 nM | – | 519 nM | – | – | 97% | – | 76.5 nM | – | – | – | – |
| CN[C@@H](Cc1ccc(O)cc1)C(=O)N[C@@H]1CCCCNC(=O)C[C@@H](C(N)=O)NC(=O)[C@H](Cc2ccccc2)N(C)C(=O)[C@H](Cc2ccccc2)N(C)C1=O | – | – | – | – | – | 96.9% | – | – | – | Nd(Insoluble) | Nd(Insoluble) | Nd(Insoluble) |
